Results: ChEMBL document CHEMBL2346657, “Synthesis of novel 2-amino-4-(5'-substituted 2'-phenyl-1H-indol-3'-yl)-6-aryl-4H-pyran-3-carbonitrile derivatives as antimicrobial and antioxidant agents” (2013)
The source made the active and inactive calls. Unless noted, the rule behind the calls is not given here.

Tests used:
Assay type in all cases: functional
[1] = Antioxidant activity assessed as metal chelating activity by measuring inhibition of ferrozine-Fe2+ complex formation at 25 to 100 ug/ml
[2] = Antioxidant activity assessed as ferric ion reducing activity at 75 ug/ml by FRAP assay
[3] = test system: Radical scavenging activity; test: Antioxidant activity assessed as DPPH radical scavenging activity at 100 ug/ml
Aspergillus flavus [4] = test: Antimicrobial activity against Aspergillus flavus MTCC 1973 at 500 ug/ml after 72 hrs by cup plate method; details: MTCC 1973, 72 h, read-out: IZ
Aspergillus flavus [5] = test: Antimicrobial activity against Aspergillus flavus MTCC 1973 at 750 ug/ml after 72 hrs by cup plate method; details: MTCC 1973, 72 h, read-out: IZ
Aspergillus flavus [6] = test: Antimicrobial activity against Aspergillus flavus MTCC 1973 at 1000 ug/ml after 72 hrs by cup plate method; details: MTCC 1973, 72 h, read-out: IZ
Aspergillus terreus [7] = test: Antimicrobial activity against Aspergillus terreus MTCC 1782 at 500 ug/ml after 72 hrs by cup plate method; details: MTCC 1782, 72 h, read-out: IZ
Aspergillus terreus [8] = test: Antimicrobial activity against Aspergillus terreus MTCC 1782 at 750 ug/ml after 72 hrs by cup plate method; details: MTCC 1782, 72 h, read-out: IZ
Aspergillus terreus [9] = test: Antimicrobial activity against Aspergillus terreus MTCC 1782 at 1000 ug/ml after 72 hrs by cup plate method; details: MTCC 1782, 72 h, read-out: IZ
Aspergillus oryzae [10] = test: Antimicrobial activity against Aspergillus oryzae MTCC 3567 at 500 ug/ml after 72 hrs by cup plate method; details: MTCC 3567, 72 h, read-out: IZ
Aspergillus oryzae [11] = test: Antimicrobial activity against Aspergillus oryzae MTCC 3567 at 750 ug/ml after 72 hrs by cup plate method; details: MTCC 3567, 72 h, read-out: IZ
Aspergillus oryzae [12] = test: Antimicrobial activity against Aspergillus oryzae MTCC 3567 at 1000 ug/ml after 72 hrs by cup plate method; details: MTCC 3567, 72 h, read-out: IZ
Aspergillus niger [13] = test: Antimicrobial activity against Aspergillus niger MTCC 281 at 500 ug/ml after 72 hrs by cup plate method; details: MTCC 281, 72 h, read-out: IZ
Aspergillus niger [14] = test: Antimicrobial activity against Aspergillus niger MTCC 281 at 750 ug/ml after 72 hrs by cup plate method; details: MTCC 281, 72 h, read-out: IZ
Aspergillus niger [15] = test: Antimicrobial activity against Aspergillus niger MTCC 281 at 1000 ug/ml after 72 hrs by cup plate method; details: MTCC 281, 72 h, read-out: IZ
Pseudomonas aeruginosa [16] = test: Antimicrobial activity against Pseudomonas aeruginosa MTCC 1688 at 500 ug/ml after 24 hrs by cup plate method; details: MTCC 1688, 24 h, read-out: IZ
Pseudomonas aeruginosa [17] = test: Antimicrobial activity against Pseudomonas aeruginosa MTCC 1688 at 750 ug/ml after 24 hrs by cup plate method; details: MTCC 1688, 24 h, read-out: IZ
Pseudomonas aeruginosa [18] = test: Antimicrobial activity against Pseudomonas aeruginosa MTCC 1688 at 1000 ug/ml after 24 hrs by cup plate method; details: MTCC 1688, 24 h, read-out: IZ
Klebsiella pneumoniae [19] = test: Antimicrobial activity against Klebsiella pneumoniae NCTC 13368 at 500 ug/ml after 24 hrs by cup plate method; details: NCTC 13368, 24 h, read-out: IZ
Klebsiella pneumoniae [20] = test: Antimicrobial activity against Klebsiella pneumoniae NCTC 13368 at 750 ug/ml after 24 hrs by cup plate method; details: NCTC 13368, 24 h, read-out: IZ
Klebsiella pneumoniae [21] = test: Antimicrobial activity against Klebsiella pneumoniae NCTC 13368 at 1000 ug/ml after 24 hrs by cup plate method; details: NCTC 13368, 24 h, read-out: IZ
Staphylococcus aureus [22] = test: Antimicrobial activity against Staphylococcus aureus ATCC 29513 at 500 ug/ml after 24 hrs by cup plate method; details: ATCC 29513, 24 h, read-out: IZ
Staphylococcus aureus [23] = test: Antimicrobial activity against Staphylococcus aureus ATCC 29513 at 750 ug/ml after 24 hrs by cup plate method; details: ATCC 29513, 24 h, read-out: IZ
Staphylococcus aureus [24] = test: Antimicrobial activity against Staphylococcus aureus ATCC 29513 at 1000 ug/ml after 24 hrs by cup plate method; details: ATCC 29513, 24 h, read-out: IZ
Escherichia coli [25] = test: Antimicrobial activity against Escherichia coli MTCC 723 at 500 ug/ml after 24 hrs by cup plate method; details: MTCC 723, 24 h, read-out: IZ
Escherichia coli [26] = test: Antimicrobial activity against Escherichia coli MTCC 723 at 750 ug/ml after 24 hrs by cup plate method; details: MTCC 723, 24 h, read-out: IZ
Escherichia coli [27] = test: Antimicrobial activity against Escherichia coli MTCC 723 at 1000 ug/ml after 24 hrs by cup plate method; details: MTCC 723, 24 h, read-out: IZ
[28] = Antioxidant activity assessed as ferric ion reducing activity at 25 to 100 ug/ml by FRAP assay
[29] = Antioxidant activity assessed as ferric ion reducing activity at 25 to 75 ug/ml by FRAP assay
[30] = test system: Radical scavenging activity; test: Antioxidant activity assessed as DPPH radical scavenging activity at 75 ug/ml
[31] = test system: Radical scavenging activity; test: Antioxidant activity assessed as DPPH radical scavenging activity at 50 ug/ml

Structure (SMILES) | Activity [1] | zone of inhibition at 500 µg/mL (Aspergillus flavus [4]) | zone of inhibition at 750 µg/mL (Aspergillus flavus [5]) | zone of inhibition at 1000 µg/mL (Aspergillus flavus [6]) | zone of inhibition at 500 µg/mL (Aspergillus terreus [7]) | zone of inhibition at 750 µg/mL (Aspergillus terreus [8]) | zone of inhibition at 1000 µg/mL (Aspergillus terreus [9]) | zone of inhibition at 500 µg/mL (Aspergillus oryzae [10]) | zone of inhibition at 750 µg/mL (Aspergillus oryzae [11]) | zone of inhibition at 1000 µg/mL (Aspergillus oryzae [12]) | zone of inhibition at 500 µg/mL (Aspergillus niger [13]) | zone of inhibition at 750 µg/mL (Aspergillus niger [14]) | zone of inhibition at 1000 µg/mL (Aspergillus niger [15]) | zone of inhibition at 500 µg/mL (Pseudomonas aeruginosa [16]) | zone of inhibition at 750 µg/mL (Pseudomonas aeruginosa [17]) | zone of inhibition at 1000 µg/mL (Pseudomonas aeruginosa [18]) | zone of inhibition at 500 µg/mL (Klebsiella pneumoniae [19]) | zone of inhibition at 750 µg/mL (Klebsiella pneumoniae [20]) | zone of inhibition at 1000 µg/mL (Klebsiella pneumoniae [21]) | zone of inhibition at 500 µg/mL (Staphylococcus aureus [22]) | also measured
Nc1nc(=O)[nH]c2c1C(c1c(-c3ccccc3)[nH]c3ccc(Cl)cc13)C=C(c1ccc(Cl)cc1)O2 (stereo not given) | Active | 6 mm | 6 mm | 4 mm | 9 mm | 9 mm | 9 mm | 9 mm | 9 mm | 9 mm | 12 mm | 12 mm | 13 mm | 9 mm | 9 mm | 9 mm | 9 mm | 9 mm | 9 mm | 13 mm | Activity [2]: Active; Activity [3]: 75.5%; zone of inhibition at 750 µg/mL (Staphylococcus aureus [23]): 13 mm; zone of inhibition at 1000 µg/mL (Staphylococcus aureus [24]): 14 mm; zone of inhibition at 500 µg/mL (Escherichia coli [25]): 9 mm; zone of inhibition at 750 µg/mL (Escherichia coli [26]): 10 mm; zone of inhibition at 1000 µg/mL (Escherichia coli [27]): 10 mm
Nc1n[nH]c2c1C(c1c(-c3ccccc3)[nH]c3ccccc13)C=C(c1ccc(Cl)cc1)O2 (stereo not given) | Active | 9 mm | 9 mm | 9 mm | 8 mm | 6 mm | 11 mm | 12 mm | 12 mm | 13 mm | 7 mm | 5 mm | 3 mm | 10 mm | 10 mm | 10 mm | 5 mm | 5 mm | 5 mm | 5 mm | Activity [2]: Active; zone of inhibition at 750 µg/mL (Staphylococcus aureus [23]): 4 mm; zone of inhibition at 1000 µg/mL (Staphylococcus aureus [24]): 3 mm; zone of inhibition at 500 µg/mL (Escherichia coli [25]): 13 mm; zone of inhibition at 750 µg/mL (Escherichia coli [26]): 13 mm; zone of inhibition at 1000 µg/mL (Escherichia coli [27]): 14 mm
Cc1ccc(C2=CC(c3c(-c4ccccc4)[nH]c4ccc(Cl)cc34)c3c(nc[nH]c3=O)O2)cc1 (stereo not given) | Active | 6 mm | 6 mm | 6 mm | 8 mm | 8 mm | 8 mm | 12 mm | 13 mm | 13 mm | 8 mm | 8 mm | 8 mm | 8 mm | 8 mm | 8 mm | 9 mm | 9 mm | 9 mm | 5 mm | Activity [28]: Active; Activity [29]: Active; zone of inhibition at 750 µg/mL (Staphylococcus aureus [23]): 3 mm; zone of inhibition at 1000 µg/mL (Staphylococcus aureus [24]): 3 mm; zone of inhibition at 500 µg/mL (Escherichia coli [25]): 3 mm; zone of inhibition at 750 µg/mL (Escherichia coli [26]): 3 mm; zone of inhibition at 1000 µg/mL (Escherichia coli [27]): 3 mm
Cc1ccc2[nH]c(-c3ccccc3)c(C3C=C(c4ccc(Cl)cc4)Oc4[nH]c(=S)nc(N)c43)c2c1 (stereo not given) | Active | 3 mm | 3 mm | 4 mm | 3 mm | 3 mm | 10 mm | 9 mm | 8 mm | 9 mm | 5 mm | 5 mm | 3 mm | 9 mm | 9 mm | 9 mm | 5 mm | 3 mm | 5 mm | 9 mm | Activity [29]: Active; zone of inhibition at 750 µg/mL (Staphylococcus aureus [23]): 9 mm; zone of inhibition at 1000 µg/mL (Staphylococcus aureus [24]): 11 mm; zone of inhibition at 500 µg/mL (Escherichia coli [25]): 4 mm; zone of inhibition at 750 µg/mL (Escherichia coli [26]): 3 mm; zone of inhibition at 1000 µg/mL (Escherichia coli [27]): 3 mm
Cc1ccc(C2=CC(c3c(-c4ccccc4)[nH]c4ccc(Cl)cc34)c3c(nc4oc(=O)c(C#N)c(N)c4c3N)O2)cc1 (stereo not given) | Active | 6 mm | 5 mm | 3 mm | 3 mm | 3 mm | 3 mm | 10 mm | 10 mm | 10 mm | 0 mm | 0 mm | 3 mm | 2 mm | 2 mm | 2 mm | 8 mm | 8 mm | 8 mm | 5 mm | Activity [30]: Active; zone of inhibition at 750 µg/mL (Staphylococcus aureus [23]): 3 mm; zone of inhibition at 1000 µg/mL (Staphylococcus aureus [24]): 3 mm; zone of inhibition at 500 µg/mL (Escherichia coli [25]): 12 mm; zone of inhibition at 750 µg/mL (Escherichia coli [26]): 10 mm; zone of inhibition at 1000 µg/mL (Escherichia coli [27]): 9 mm
O=c1[nH]cnc2c1C(c1c(-c3ccccc3)[nH]c3ccc(Cl)cc13)C=C(c1ccc(Cl)cc1)O2 (stereo not given) | Active | 4 mm | 4 mm | 4 mm | 5 mm | 5 mm | 5 mm | 3 mm | 3 mm | 3 mm | 6 mm | 5 mm | 5 mm | 8 mm | 8 mm | 8 mm | 12 mm | 12 mm | 12 mm | 9 mm | Activity [30]: Active; Activity [31]: Active; zone of inhibition at 750 µg/mL (Staphylococcus aureus [23]): 9 mm; zone of inhibition at 1000 µg/mL (Staphylococcus aureus [24]): 12 mm; zone of inhibition at 500 µg/mL (Escherichia coli [25]): 9 mm; zone of inhibition at 750 µg/mL (Escherichia coli [26]): 9 mm; zone of inhibition at 1000 µg/mL (Escherichia coli [27]): 8 mm
Nc1nc(=S)[nH]c2c1C(c1c(-c3ccccc3)[nH]c3ccc(Cl)cc13)C=C(c1ccc(Cl)cc1)O2 (stereo not given) | Active | 5 mm | 4 mm | 11 mm | 2 mm | 3 mm | 3 mm | 9 mm | 10 mm | 0 mm | 11 mm | 11 mm | 14 mm | 10 mm | 10 mm | 11 mm | 5 mm | 5 mm | 8 mm | 13 mm | Activity [30]: Active; zone of inhibition at 750 µg/mL (Staphylococcus aureus [23]): 13 mm; zone of inhibition at 1000 µg/mL (Staphylococcus aureus [24]): 13 mm; zone of inhibition at 500 µg/mL (Escherichia coli [25]): 10 mm; zone of inhibition at 750 µg/mL (Escherichia coli [26]): 10 mm; zone of inhibition at 1000 µg/mL (Escherichia coli [27]): 11 mm
